We go through two compounds from doi:10.1101/2020.10.05.326645v1 (biorxiv, 2020).

As usually defined, the EC50 is the midpoint of the concentration-response curve.

The target of assay [1] is T1, HhTAR1 (Halyomorpha halys, UniProt A0A8A6C5M4).
T1 sequence (A0A8A6C5M4 1-448): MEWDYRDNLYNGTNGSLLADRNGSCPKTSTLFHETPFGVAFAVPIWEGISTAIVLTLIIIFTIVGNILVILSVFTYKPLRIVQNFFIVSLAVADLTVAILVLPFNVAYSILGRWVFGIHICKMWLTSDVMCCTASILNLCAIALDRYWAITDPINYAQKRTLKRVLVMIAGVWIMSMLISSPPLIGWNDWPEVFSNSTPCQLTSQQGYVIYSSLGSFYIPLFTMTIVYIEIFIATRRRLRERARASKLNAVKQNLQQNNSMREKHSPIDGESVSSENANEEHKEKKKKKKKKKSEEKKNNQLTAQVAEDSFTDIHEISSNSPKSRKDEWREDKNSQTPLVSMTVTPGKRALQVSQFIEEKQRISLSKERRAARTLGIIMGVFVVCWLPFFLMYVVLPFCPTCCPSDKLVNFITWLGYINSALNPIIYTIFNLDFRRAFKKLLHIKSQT
The class given is cell-based.

Assay [2] has as its target T1, HhTAR1. The assay can be described thus: Fluo-4 calcium mobilization, FlexStation II, HEK […] cells. The class given is cell-based. (In general: Calcium flux is commonly read through the fluorescence of an indicator in the cells.)

In turn, `COC(=O)[C@@H]1[C@H]2C[C@H]3c4[nH]c5ccccc5c4CCN3C[C@@H]2CC[C@@H]1O` [yohimbine] had a Kb in assay [1] of 5.5 nM.
Consider `NCCc1ccc(O)cc1` [tyramine], for which the EC50 in assay [2] is 1020 nM.
